These results are taken from PubChem BioAssay AID248 (DTP/NCI, 2004).

This test deals with L1210 leukemia ip in BDF1 mice, survival T/C. As to the kind of experiment: NCI In Vivo Anticancer Drug Screen. Data for tumor model L1210 Leukemia (intraperitoneal) in B6D2F1 (BDF1) mice. Conditions: endpoint: mean survival time, higher = longer survival. The method in brief: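 In this screen, tumor-bearing mice given compound are compared to those given vehicle, and their survival values are reported as a treated-to-control quotient.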

The mark [1] stands for this setting: dose: 100.0 mg/kg/injection, schedule: Q01DX001 (ip), vehicle: saline with Tween-80.
Setting [2] is: dose: 200.0 mg/kg/injection, schedule: Q01DX001 (ip), vehicle: saline with Tween-80.
The mark [3] stands for this setting: dose: 400.0 mg/kg/injection, schedule: Q01DX001 (ip), vehicle: saline with Tween-80.
[4] abbreviates: dose: 100.0 mg/kg/injection, schedule: Q04DX003 (ip), vehicle: saline.
The mark [5] stands for this setting: dose: 100.0 mg/kg/injection, schedule: Q04DX003 (ip), vehicle: saline with Tween-80.
Where [6] appears, read: dose: 200.0 mg/kg/injection, schedule: Q04DX003 (ip), vehicle: saline with Tween-80.
The mark [7] stands for this setting: dose: 100.0 mg/kg/injection, schedule: Q01DX009 (ip), vehicle: Klucel (hydroxypropylcellulose) (HPC).
Where [8] appears, read: dose: 100.0 mg/kg/injection, schedule: Q04DX003 (ip), vehicle: Klucel (hydroxypropylcellulose) (HPC).
[9] abbreviates: dose: 200.0 mg/kg/injection, schedule: Q01DX009 (ip), vehicle: Klucel (hydroxypropylcellulose) (HPC).
[10] abbreviates: dose: 200.0 mg/kg/injection, schedule: Q04DX003 (ip), vehicle: Klucel (hydroxypropylcellulose) (HPC).
[11] abbreviates: dose: 400.0 mg/kg/injection, schedule: Q01DX009 (ip), vehicle: Klucel (hydroxypropylcellulose) (HPC).
Setting [12] is: dose: 400.0 mg/kg/injection, schedule: Q04DX003 (ip), vehicle: Klucel (hydroxypropylcellulose) (HPC).
[13] abbreviates: dose: 100.0 mg/kg/injection, schedule: Q01DX001 (ip), vehicle: carboxymethylcellulose (CMC).
The mark [14] stands for this setting: dose: 200.0 mg/kg/injection, schedule: Q01DX001 (ip), vehicle: carboxymethylcellulose (CMC).
Where [15] appears, read: dose: 400.0 mg/kg/injection, schedule: Q01DX001 (ip), vehicle: carboxymethylcellulose (CMC).

The structures appear in SMILES notation. Inconclusive results and toxic doses are left out.

For `CCCCC[CH2][Sn](=[O])[CH2]CCCCC`, the T/C reads like this: under setting [1], 105 % of control; under setting [2], 100 % of control; under setting [3], 103 % of control.

Consider `O=C1C(NC2CCCCC2)=C(c2ccccc2)c2ccccc21`, for which the T/C by setting is: (dose: 50.0 mg/kg/injection, schedule: Q01DX001 (ip), vehicle: Klucel (hydroxypropylcellulose) (HPC)) 94 % of control; (dose: 100.0 mg/kg/injection, schedule: Q01DX001 (ip), vehicle: Klucel (hydroxypropylcellulose) (HPC)) 92 % of control; (dose: 200.0 mg/kg/injection, schedule: Q01DX001 (ip), vehicle: Klucel (hydroxypropylcellulose) (HPC)) 94 % of control.

As for `CC(=O)c1ccc2ccc3ccccc3c2c1`, the T/C is, setting by setting: (dose: 75.0 mg/kg/injection, schedule: Q01DX009 (ip), vehicle: saline) 98 % of control; under setting [4], 98 % of control; (dose: 150.0 mg/kg/injection, schedule: Q01DX009 (ip), vehicle: saline) 98 % of control; (dose: 200.0 mg/kg/injection, schedule: Q04DX003 (ip), vehicle: saline) 101 % of control; (dose: 300.0 mg/kg/injection, schedule: Q01DX009 (ip), vehicle: saline) 95 % of control; (dose: 400.0 mg/kg/injection, schedule: Q04DX003 (ip), vehicle: saline) 101 % of control.

`N#CC1(Cc2ccc(OCc3ccccc3)c(OCc3ccccc3)c2)c2ccccc2C=CN1C(=O)c1ccccc1` (stereo not given): the T/C reads like this: (dose: 25.0 mg/kg/injection, schedule: Q04DX003 (ip), vehicle: saline with Tween-80) 100 % of control; (dose: 50.0 mg/kg/injection, schedule: Q04DX003 (ip), vehicle: saline with Tween-80) 91 % of control; under setting [5], 89 % of control.

In the case of `Nc1c2ccccc2nc2ccccc12`, the T/C was 105 % of control (dose: 5.0 mg/kg/injection, schedule: Q01DX009 (ip), vehicle: Klucel (hydroxypropylcellulose) (HPC)); 98 % of control (dose: 10.0 mg/kg/injection, schedule: Q01DX009 (ip), vehicle: Klucel (hydroxypropylcellulose) (HPC)); 103 % of control (dose: 15.0 mg/kg/injection, schedule: Q01DX009 (ip), vehicle: Klucel (hydroxypropylcellulose) (HPC)); 86 % of control under setting [5]; 86 % of control under setting [6].

For the compound `Cc1cccc(NC(=S)Nc2ccc(-c3ccc(NC(=S)Nc4cccc(C)c4)cc3)cc2)c1`, the T/C (dose: 100.0 mg/kg/injection, schedule: Q01DX009 (ip), vehicle: other) is 104 % of control; the T/C (dose: 200.0 mg/kg/injection, schedule: Q01DX009 (ip), vehicle: other) is 106 % of control; the T/C (dose: 400.0 mg/kg/injection, schedule: Q01DX009 (ip), vehicle: other) was 96 % of control.

With `C(=C/c1ccccc1)/C[P+](c1ccccc1)(c1ccccc1)c1ccccc1`, the T/C by setting is: (dose: 1.25 mg/kg/injection, schedule: Q01DX009 (ip), vehicle: saline with Tween-80) 97 % of control; (dose: 2.5 mg/kg/injection, schedule: Q01DX009 (ip), vehicle: saline with Tween-80) 94 % of control; (dose: 5.0 mg/kg/injection, schedule: Q01DX009 (ip), vehicle: saline with Tween-80) 98 % of control; (dose: 5.0 mg/kg/injection, schedule: Q04DX003 (ip), vehicle: saline with Tween-80) 98 % of control; (dose: 10.0 mg/kg/injection, schedule: Q04DX003 (ip), vehicle: saline with Tween-80) 86 % of control; (dose: 20.0 mg/kg/injection, schedule: Q04DX003 (ip), vehicle: saline with Tween-80) 90 % of control.

With `CCS(=O)(=O)Nc1cccc(Nc2c3cccc(C)c3nc3c(C)cccc23)c1OC`, the T/C runs as follows: (dose: 5.5 mg/kg/injection, schedule: Q01DX009 (ip), vehicle: saline) 122 % of control; (dose: 11.0 mg/kg/injection, schedule: Q04DX003 (ip), vehicle: saline) 113 % of control; (dose: 12.5 mg/kg/injection, schedule: Q01DX009 (ip), vehicle: saline with Tween-80) 155 % of control; (dose: 12.5 mg/kg/injection, schedule: Q01DX009 (sc), vehicle: Klucel (hydroxypropylcellulose) (HPC)) 112 % of control; (dose: 16.0 mg/kg/injection, schedule: Q04DX003 (ip), vehicle: saline) 114 % of control; (dose: 25.0 mg/kg/injection, schedule: Q01DX009 (ip), vehicle: saline with Tween-80) 181 % of control. Also, the T/C by setting is: (dose: 25.0 mg/kg/injection, schedule: Q01DX009 (sc), vehicle: Klucel (hydroxypropylcellulose) (HPC)) 123 % of control; (dose: 50.0 mg/kg/injection, schedule: Q01DX009 (ip), vehicle: saline with Tween-80) 103 % of control; (dose: 50.0 mg/kg/injection, schedule: Q04DX003 (ip), vehicle: saline) 157 % of control; under setting [4], 170 % of control.

Take `N#CCN(CC#N)CCN(CC#N)CCN(CC#N)CC#N`: the T/C is 104 % of control (dose: 100.0 mg/kg/injection, schedule: Q01DX001 (ip), vehicle: saline); 104 % of control (dose: 200.0 mg/kg/injection, schedule: Q01DX001 (ip), vehicle: saline); 95 % of control (dose: 400.0 mg/kg/injection, schedule: Q01DX001 (ip), vehicle: saline).

Turning to `Cc1ccc(S(=O)(=O)NCCCCCC(=O)O)cc1`, the T/C by setting is: under setting [7], 101 % of control; under setting [8], 98 % of control; under setting [9], 101 % of control; under setting [10], 94 % of control; under setting [11], 100 % of control; under setting [12], 96 % of control.

With `ClC1C2C=CC1CC2` (stereo not given), the T/C by setting is: under setting [13], 90 % of control; under setting [14], 90 % of control; under setting [15], 93 % of control.

As for `O=C1CC(C(=O)Nc2ccccc2)C(c2ccccc2)(c2ccccc2)O1` (stereo not given), the T/C is, setting by setting: under setting [13], 97 % of control; under setting [14], 106 % of control; under setting [15], 95 % of control.

In the case of `Cc1ccc(NC(=O)c2ccccc2C(=O)O)cc1Cl`, the T/C reads like this: under setting [7], 93 % of control; under setting [8], 96 % of control; under setting [9], 98 % of control; under setting [10], 93 % of control; under setting [11], 95 % of control; under setting [12], 96 % of control.

On to `S=C(Nc1ccc(Br)cc1)NC1CCCCC1`, for which the T/C is, setting by setting: (dose: 75.0 mg/kg/injection, schedule: Q01DX001 (ip), vehicle: other) 88 % of control; (dose: 150.0 mg/kg/injection, schedule: Q01DX001 (ip), vehicle: other) 93 % of control; (dose: 300.0 mg/kg/injection, schedule: Q01DX001 (ip), vehicle: other) 95 % of control.

Take `O=C(Nc1ccccc1C(=O)N/N=C/c1cccc(O)c1)c1ccccc1`: the T/C runs as follows: under setting [7], 103 % of control; under setting [9], 89 % of control; under setting [11], 97 % of control.

With `Cc1ccc(NC(=O)c2ccc(Cl)cc2)c(C)c1`, the T/C under setting [7] was 94 % of control; the T/C under setting [8] was 106 % of control; the T/C under setting [9] was 100 % of control; the T/C under setting [10] was 96 % of control; the T/C under setting [12] was 98 % of control.

As for `CCOC(=O)CNC(=O)Nc1ccc(S(N)(=O)=O)cc1`, the T/C is 95 % of control (dose: 100.0 mg/kg/injection, schedule: Q01DX009 (ip), vehicle: saline with Tween-80); 96 % of control (dose: 200.0 mg/kg/injection, schedule: Q01DX009 (ip), vehicle: saline with Tween-80); 96 % of control (dose: 400.0 mg/kg/injection, schedule: Q01DX009 (ip), vehicle: saline with Tween-80).

Consider `COC1(C#N)C(=O)c2ccccc2C1=O`, for which the T/C runs as follows: under setting [1], 97 % of control; under setting [2], 108 % of control; under setting [3], 94 % of control.

On to `CC(C)(C)c1cc(Cc2cc(C(C)(C)C)c(O)c(C(C)(C)C)c2)cc(C(C)(C)C)c1O`, for which the T/C is 96 % of control under setting [5]; 98 % of control under setting [6]; 104 % of control (dose: 400.0 mg/kg/injection, schedule: Q04DX003 (ip), vehicle: saline with Tween-80).
